Reference: US10214567B2, “Tagged hepadnavirus E antigen and its use in screening antiviral substances” (Drexel University, priority 2014, dated 2019)
Entries after “also recorded” stand apart in the source; their conditions may differ.

Test system: HA-HBeAg production from HepBHAe13 cells
Test: HA-HBeAg CLIA in HepBHAe13 cells treated with cccDNA formation inhibitors (96-well-plate)
Type: cell-based, Hepatitis B virus (HBV)
Conditions: tetracycline removed, compounds at indicated concentrations, 0.5% DMSO, day 12 post treatment (FIG. 11)
Text: According to another aspect of the present invention, the in vitro assay method can be used to evaluate compounds/candidate molecules that suppress cccDNA formation. Briefly, cells can be seeded into culture wells and tetracycline can be omitted at the day when cell monolayer becomes confluent. Simultaneously, test compound can be added and tagged hepadnavirus e antigen (like HA-HBeAg) in the medium can be measured by ELISA at the end of treatment (approximately 6 days). […] As an expanding aspect of this in vitro assay method, it is worth to note that the reduction of tagged hepadnavirus e antigen (like HA-HBeAg) in this assay may also indicate that the compound has the potential to inhibit hepadnavirus (like HBV) DNA replication. Such possibility can be investigated through direct measurement of viral core DNA by Southern blot and/or qPCR. […]
FIG. 11. […] At day 12 post treatment, culture fluid was subjected to HA-HBeAg CLIA and readout was plotted as percentage (mean±SD) to control.
For chemiluminescence enzyme immunoassay (CLIA) detection of HA-tagged HBeAg, high sensitivity streptavidin coated plate (Black, cat#: 15525, Thermo Scientific) was washed by PBST (PBS plus 0.05% Tween 20) for 3 times, and then incubated with 50 μl of anti-HA-biotin (cat#: A00203, Genscript; 5 μg/ml in PBS) at RT for 30 min, followed by wash with 200 μl PBST for 3 times. […] The plate was read on a luminometer.

| SMILES | HA-HBeAg level in culture fluid (CLIA, percentage to control) |
| --- | --- |
| Cc1nc2cc(NC(=O)c3ccc(S(=O)(=O)N(C)Cc4ccccc4)cc3)ccc2s1 [CCC-0346] | dose-dependent inhibition of HA-HBeAg production; also recorded: dose dependently reduced the HA-HBeAg level |
| O=C(CN(c1cc(C(F)(F)F)ccc1Cl)S(=O)(=O)c1ccccc1)NCc1ccncc1 [CCC-0975] | dose-dependent inhibition of HA-HBeAg production; also recorded: dose dependently reduced the HA-HBeAg level |
